Source: paper PMC11249646, “Small-Molecule Disruptors of the Interaction between Calcium- and Integrin-Binding Protein 1 and Integrin αIIbβ3 as Novel Antiplatelet Agents” (ACS Pharmacology & Translational Science, 2024)
Like-named read-outs stand apart in the source and are kept apart here.

Tests used:
[1] = molecular target: T1, CIB1 and αIIb interaction (CIB1-GST : F-αIIb peptide) (Homo sapiens, UniProt Q99828); test: FP assay, 1536-well qHTS format (primary and confirmatory screen); type: binding; settings: for Curve Class (confirmatory screen) / CONFIRMATORY SCREEN Curve Class: qHTS curve class
T1 construct: made in house; host or cells: BL-21 plus RIL cells (E. coli)
T1 sequence (Q99828 1-191): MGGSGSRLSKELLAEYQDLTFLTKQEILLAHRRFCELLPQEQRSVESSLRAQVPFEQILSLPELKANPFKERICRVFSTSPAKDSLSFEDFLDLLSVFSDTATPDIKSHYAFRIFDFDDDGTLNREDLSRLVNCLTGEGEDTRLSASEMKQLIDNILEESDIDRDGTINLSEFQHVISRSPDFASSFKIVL

[2] = molecular target: T2, GST-CIB1 : F-scrambled peptide (Homo sapiens, UniProt Q99828); test: FP scrambled-peptide counter screen, 1536-well format; type: binding; settings: for Curve Class (counterscreen) / COUNTERSCREEN Curve Class: qHTS curve class
T2 construct: made in house; host or cells: BL-21 plus RIL cells (E. coli)
T2 sequence (Q99828 1-191): T1 sequence (Q99828 1-191)

[3] = Table S3, confirmatory screen, a negative sign marks inhibitory curves
[4] = Table S3, confirmatory screen, negative = inhibition
[5] = qHTS FP screen hits, Table S2, negative = inhibition
[6] = qHTS FP screen hits, Table S2, read-out: IC50
[7] = Table S3, counterscreen, a negative sign marks inhibitory curves
[8] = Table S3, counterscreen, negative = inhibition
[9] = Table S3, counterscreen, read-out: IC50 [μM] (counterscreen)
[10] = confirmatory screen, negative sign = inhibitory curve
[11] = qHTS primary screen hits, Table S2, negative = inhibition
[12] = qHTS primary screen hits, Table S2, read-out: IC50
[13] = scrambled-peptide counterscreen
[14] = confirmatory screen, read-out: IC50 [μM] (confirmatory screen)
[15] = counterscreen, negative sign = inhibitory curve
[16] = counterscreen, read-out: IC50 [μM] (counterscreen)
[17] = qHTS primary screen hits, Table S2, negative sign = inhibitory curve, several classes where COUNT > 1
[18] = Table S3, confirmatory screen, YES/NO call

Cc1c2c(=O)n(-c3ccccc3)[nH]c2cc(=O)n1-c1cccnc1.O=C(O)C(F)(F)F [NCGC00248472-01]
Curve Class (confirmatory screen) [1, 3]: 4 | Efficacy (%) (confirmatory screen) [1, 4]: -23% | Efficacy (%) [1, 5]: -31% | IC50 [1, 6]: 39.8 µM | Confirm? (counterscreen) ([2]; Table S3, counterscreen, YES/NO call): YES | Curve Class (counterscreen) [2, 7]: -2.2 | Efficacy (%) (counterscreen) [2, 8]: -60% | IC50 [2, 9]: 39.8 µM

CN(C)[C@H]1CCN(c2cccc(Nc3nn4c(=O)c5ccccc5nc4s3)c2)C1.O=C(O)C(F)(F)F [NCGC00189222-02]
CONFIRMATORY SCREEN Confirm? ([1]; confirmatory screen, YES/NO call): YES | CONFIRMATORY SCREEN Curve Class [1, 10]: -2.4 | CONFIRMATORY SCREEN Efficacy (%) ([1]; confirmatory screen, negative = inhibition): -54% | Efficacy (%) [1, 11]: -39% | IC50 [1, 12]: 32.8 µM | COUNTERSCREEN Efficacy (%) [2, 13]: -79% | COUNTERSCREEN Confirm? ([2]; scrambled-peptide counterscreen, YES/NO call): YES | COUNTERSCREEN Curve Class [2, 13]: -2.2 | IC50 ([2]; scrambled-peptide counterscreen, read-out: COUNTERSCREEN IC50): 56.2 µM

COc1ccc2c(c[n+](C)c3c4cc5c(cc4ccc23)OCO5)c1OC.[Cl-] [NCGC00015225-03]
Efficacy (%) (confirmatory screen) ([1]; confirmatory screen): -56% | Confirm? (confirmatory screen) ([1]; confirmatory screen, YES/NO): YES | Curve Class (confirmatory screen) [1, 10]: -1.4 | IC50 [1, 14]: 11.2 µM | Efficacy (%) (counterscreen) ([2]; counterscreen): -55% | Curve Class (counterscreen) [2, 15]: -2.2 | IC50 [2, 16]: 28.2 µM

Cn1c(NC2=NC3(CCCC3)C3=C(CCCC3=O)N2)nc2ccccc21.O=C(O)C(F)(F)F [NCGC00188583-01]
Efficacy (%) (confirmatory screen) ([1]; confirmatory screen): -31% | Confirm? (confirmatory screen) ([1]; confirmatory screen, YES/NO): YES | Curve Class (confirmatory screen) [1, 10]: -2.4 | IC50 [1, 14]: 89.1 µM | Efficacy (%) [1, 5]: -27% | IC50 [1, 6]: 7.1 µM | Efficacy (%) (counterscreen) ([2]; counterscreen): -13% | Confirm? (counterscreen) ([2]; counterscreen, YES/NO): YES | Curve Class (counterscreen) [2, 15]: 4

CCN1C(=O)c2ccccc2[S+]([O-])c2ccc(C(=O)Nc3ncc(C)s3)cc21 (stereo not shown) [NCGC00241655-01]
CONFIRMATORY SCREEN Efficacy (%) ([1]; confirmatory screen): -10% | CONFIRMATORY SCREEN Curve Class ([1]; confirmatory screen): 4 | Efficacy (%) [1, 11]: -23% | Curve Class [1, 17]: -2.4 | IC50 [1, 12]: 39.8 µM | COUNTERSCREEN Efficacy (%) ([2]; counterscreen): -33% | COUNTERSCREEN Curve Class ([2]; counterscreen): 4

CN1CCN(c2ccc(-c3cc(O)c4ncccc4c3)cc2)CC1.O=C(O)C(F)(F)F [NCGC00183803-01]
CONFIRMATORY SCREEN Efficacy (%) ([1]; confirmatory screen): -13% | CONFIRMATORY SCREEN Curve Class ([1]; confirmatory screen): 4 | Efficacy (%) [1, 5]: -51% | IC50 [1, 6]: 39.8 µM | COUNTERSCREEN Efficacy (%) ([2]; counterscreen): -12% | COUNTERSCREEN Curve Class ([2]; counterscreen): 4

O=C1C=CC(=O)N1c1ccc(N2CCOCC2)cc1 [NCGC00373122-01]
CONFIRMATORY SCREEN Efficacy (%) ([1]; confirmatory screen): -44% | CONFIRMATORY SCREEN Curve Class ([1]; confirmatory screen): 4 | Efficacy (%) [1, 11]: -33% | Curve Class [1, 17]: -2.4 | IC50 [1, 12]: 28.2 µM | COUNTERSCREEN Efficacy (%) ([2]; counterscreen): -8% | COUNTERSCREEN Curve Class ([2]; counterscreen): 4

COc1ccc(-n2ncc3c2CCCC3NC(=O)c2ccccc2F)cc1.O=C(O)C(F)(F)F (stereo not shown) [NCGC00273507-01]
Curve Class (confirmatory screen) [1, 3]: 2.4 | Efficacy (%) (confirmatory screen) [1, 4]: 22% | Efficacy (%) [1, 11]: -45% | Curve Class [1, 17]: -2.2 | IC50 [1, 12]: 39.8 µM | Curve Class (counterscreen) [2, 7]: 4 | Efficacy (%) (counterscreen) [2, 8]: 13%

CCCCNC(=S)N/N=C1\C(=O)Nc2ccccc21.O=C(O)C(F)(F)F [NCGC00229539-01]
Confirm? (confirmatory screen) [1, 18]: YES | Curve Class (confirmatory screen) [1, 3]: -2.4 | Efficacy (%) (confirmatory screen) [1, 4]: -49% | IC50 ([1]; Table S3, confirmatory screen, read-out: IC50 [μM] (confirmatory screen)): 50.1 µM | Efficacy (%) [1, 11]: -32% | Curve Class [1, 17]: -1.2 | IC50 [1, 12]: 17.8 µM | Curve Class (counterscreen) [2, 7]: -1.2 | Efficacy (%) (counterscreen) [2, 8]: -50% | IC50 [2, 9]: 11.2 µM

O=c1cc(-c2ccccc2)oc2cc(O)c(O)c(O)c12 [NCGC00017236-08]
Efficacy (%) (confirmatory screen) ([1]; confirmatory screen): -112% | IC50 [1, 14]: 39.8 µM | Efficacy (%) [1, 11]: -30% | IC50 [1, 12]: 34.1 µM | Efficacy (%) (counterscreen) ([2]; counterscreen): -64% | IC50 [2, 16]: 39.8 µM

O=C(O)C(F)(F)F.O=S(=O)(NCc1nccs1)c1ccc(Nc2nc(-c3ccccc3)cs2)cc1 [NCGC00262383-01]
Confirm? (confirmatory screen) [1, 18]: YES | Curve Class (confirmatory screen) [1, 3]: -2.2 | Efficacy (%) (confirmatory screen) [1, 4]: -80% | Efficacy (%) [1, 5]: -60% | Curve Class ([1]; qHTS FP screen hits, Table S2, one class per curve where COUNT > 1, negative sign = inhibitory curve): -2.2 | IC50 [1, 6]: 50.1 µM | Curve Class (counterscreen) [2, 7]: -2.2 | Efficacy (%) (counterscreen) [2, 8]: -83% | IC50 [2, 9]: 50.1 µM
